# Test results reported in patent US5849729A, “Use of hydrolyzed cocoa butter for percutaneous absorption” (Hershey Foods Corporation, priority 1995, dated 1998).
# Where “and” joins values, the source holds several entries; their conditions need not be identical. Equal values may be shown once. Entries after “also recorded” stand apart in the source; their conditions may differ.
# Assay: In-vitro percutaneous absorption of retinoic acid and triamcinolone acetonide from two cocoa butter vehicles (Franz cells, 48 h)
# Conditions: for % Abs (% Absorbed) / % Absorbed / total absorption: percent of applied dose
# Excerpt: The objective of this study was to measure the permeation of retinoic acid and triamcinolone acetonide through human skin in-vitro from two cocoa butter vehicles.
# Two cocoa butter vehicles supplied by Hershey Foods Corporation were utilized: (1) pure cocoa butter and (2) partially hydrolyzed cocoa butter emulsion. Radioactive [11,12-^3 H] [retinoic acid (NET 920, Lot 2930-067, specific activity 1 mCi/ml) and [6,7-^3 H]-triamcinolone acetonide (NET 470, Lot 2904-170, specific activity 1 mCi/ml) were obtained from Dupont-New England Nuclear Corporation, Boston, Mass.
# Each of the two cocoa butter vehicles was spiked separately with ^3 H-retinoic acid and ^3 H-Triamcinolone acetonide to give a total of four radioactive formulations for study. This was done by adding 25 μl (containing 25 μCi) of each tracer solution to approximately 1 gram of each vehicle and mixing with the tip of the dispensing micropipette. The pure cocoa butter vehicle was liquified by holding it under warm tap water prior to spiking. This was not done with the partially hydrolyzed cocoa butter emulsion. Neither formulation was used for three days after spiking to allow for diffusional mixing to take place. Final radioactive concentrations of each formulation were: […]
# Human trunk skin without obvious signs of disease was used throughout. It was obtained within 24 hours of death, dermatomed to a thickness of approximately 0.25 mm, cryopreserved and sealed in water vapor-impermeableplastic bags. It was stored at -70° C. until the day of use then thawed by placing the bag in 37° C. water.
# Skin from a single donor was cut into multiple sections large enough to fit on 0.8 cm^2 Franz cells. The dermal chamber was filled with isotonic saline, pH 7.4, into which a small magnetic stirring bar was placed. The epidermal chamber was left open to the ambient laboratory environment, approximately 22° C. and 40-60% RH. The cells were placed in a diffusion apparatus in which the dermal receptor solution was stirred magnetically at 600 RPM and its temperature maintained at 37° C.
# To assure the integrity of each skin section, its permeability to tritiated water was determined before application of the test formulations. Following a brief (0.5-1 hour) equilibration period, 150 μl ^3 H2 O (specific activity 0.3 μCi/ml) was layered across the top of the skin section so that the entire exposed surface was covered. After 5 minutes the aqueous layer was removed and the surface of the skin carefully blotted dry. At t=0.5 hour the saline receptor phase was removed and analyzed for radioactive content by liquid scintillation counting. Skin specimens in which absorption of ^3 H2 O was less than 1.25 μl were considered acceptable.
# Subsequently, each test formulation was applied at a target dose of 10 mg (cream) or 10 μl (butter). The cream formulation (partially hydrolyzed cocoa butter emulsion) was applied from the smooth, rounded-tip of a glass rod, the exact amount determined by weighing the rod before and after application. The butter formulation (pure cocoa butter) was first liquified under warm tap water, allowed to cool to room temperature, then applied with a 10 μl positive displacement micropipette prior to resolidifying. At 4, 8, 12, 24, 36 and 48 hours the receptor solution was removed in its entirety, replaced with fresh solution, and a 1 ml aliquot taken and assayed for radioactive content by liquid scintillation counting.
# A 1 ml aliquot of each receptor sample containing ^3 H2 O, ^3 H-retinoic acid, or ^3 H-triamcinolone acetonide was placed in a 7 ml glass scintillation vial and gelled by the addition of 5 ml Opti-Fluor (Packard Instrument Co., Meriden, Conn.). These were counted in a Packard Tri-Carb Model 1900CA Liquid scintillation Analyzer equipped with internal standard and automatic quench correction.
# [1] = butter (pure cocoa butter), 48 h, individual skin sections
# [2] = butter, 48 h, average of three donors
# [3] = butter, 48 h, average per skin donor (n=4), listed as RETINOIC ACID
# [4] = butter, 48 h, average per skin donor (n=4), listed as Retinoic Acid
smiles,measurement,setting,value
CC1=C(/C=C/C(C)=C/C=C/C(C)=C/C(=O)O)C(C)(C)CCC1 [retinoic acid],absorption period versus current formulations,"admixed with cocoa butter or partially hydrolyzed cocoa butter emulsion, in words",able to sustain a longer absorption period than has been demonstrated with current retinoic acid formulations
same,steady state rate of absorption,both cocoa butter formulations,approximately 15 ng/cm^2 /hr
same,rate of absorption profile / flux,"both cocoa butter formulations, in words",higher than generally seen with other retinoic acid formulations; also recorded: relatively high flux rates
same,Penet (Total Penetration),[1],729.80 and 954.98 and 769.08 and 941.38 and 725.19 and 871.67 and 741.10 and 1267.53 and 552.40 and 552.46 and 685.17 and 944.68
same,% Abs (% Absorbed),[1],14.59% and 19.10% and 15.38% and 18.82% and 14.50% and 17.43% and 14.82% and 25.35% and 11.05% and 13.70% and 18.89%
same,"Rate of absorption, R1","butter (pure cocoa butter), sample R1, mid-t 2 h, individual skin sections",36.55 ng/cm^2 /hr and 48.20 ng/cm^2 /hr and 39.43 ng/cm^2 /hr and 51.22 ng/cm^2 /hr and 55.25 ng/cm^2 /hr and 66.87 ng/cm^2 /hr and 50.92 ng/cm^2 /hr and 79.43 ng/cm^2 /hr and 40.64 ng/cm^2 /hr and 39.67 ng/cm^2 /hr and 51.71 ng/cm^2 /hr and 75.03 ng/cm^2 /hr
same,"Rate of absorption, R3","butter (pure cocoa butter), sample R3, mid-t 10 h, individual skin sections",23.55 ng/cm^2 /hr and 28.39 ng/cm^2 /hr and 24.05 ng/cm^2 /hr and 29.61 ng/cm^2 /hr and 22.32 ng/cm^2 /hr and 21.53 ng/cm^2 /hr and 20.69 ng/cm^2 /hr and 34.12 ng/cm^2 /hr and 16.59 ng/cm^2 /hr and 15.24 ng/cm^2 /hr and 17.69 ng/cm^2 /hr and 25.75 ng/cm^2 /hr
same,"Rate of absorption, R4","butter (pure cocoa butter), sample R4, mid-t 18 h, individual skin sections",14.13 ng/cm^2 /hr and 23.33 ng/cm^2 /hr and 15.22 ng/cm^2 /hr and 18.56 ng/cm^2 /hr and 18.11 ng/cm^2 /hr and 20.56 ng/cm^2 /hr and 20.18 ng/cm^2 /hr and 33.78 ng/cm^2 /hr and 15.63 ng/cm^2 /hr and 14.10 ng/cm^2 /hr and 16.64 ng/cm^2 /hr and 23.97 ng/cm^2 /hr
same,"Rate of absorption, R5","butter (pure cocoa butter), sample R5, mid-t 30 h, individual skin sections",16.12 ng/cm^2 /hr and 19.00 ng/cm^2 /hr and 18.23 ng/cm^2 /hr and 16.25 ng/cm^2 /hr and 11.93 ng/cm^2 /hr and 15.30 ng/cm^2 /hr and 12.34 ng/cm^2 /hr and 23.05 ng/cm^2 /hr and 8.38 ng/cm^2 /hr and 9.60 ng/cm^2 /hr and 10.78 ng/cm^2 /hr and 16.34 ng/cm^2 /hr
same,"Rate of absorption, R6","butter (pure cocoa butter), sample R6, mid-t 42 h, individual skin sections",15.54 ng/cm^2 /hr and 17.94 ng/cm^2 /hr and 14.86 ng/cm^2 /hr and 24.92 ng/cm^2 /hr and 11.83 ng/cm^2 /hr and 16.34 ng/cm^2 /hr and 13.15 ng/cm^2 /hr and 24.58 ng/cm^2 /hr and 8.20 ng/cm^2 /hr and 9.16 ng/cm^2 /hr and 10.53 ng/cm^2 /hr and 14.03 ng/cm^2 /hr
same,Total Penetration,[2],811.29
same,Penet (Total Penetration),[3],848.81 and 901.37 and 683.68
same,Penet (Total Penetration),[4],683.68 and 901.37 and 848.81
same,"Rate of absorption, R1","butter, R1, mid-t 2 h, average of three donors",52.91 ng/cm^2 /hr
same,"Rate of absorption, R1","butter, R1, mid-t 2 h, average per skin donor (n=4), listed as RETINOIC ACID",43.85 ng/cm^2 /hr and 63.12 ng/cm^2 /hr and 51.76 ng/cm^2 /hr
same,"Rate of absorption, R1","butter, R1, mid-t 2 h, average per skin donor (n=4), listed as Retinoic Acid",51.76 ng/cm^2 /hr and 63.12 ng/cm^2 /hr and 43.85 ng/cm^2 /hr
same,"Rate of absorption, R3","butter, R3, mid-t 10 h, average of three donors",23.30 ng/cm^2 /hr
same,"Rate of absorption, R3","butter, R3, mid-t 10 h, average per skin donor (n=4), listed as RETINOIC ACID",26.40 ng/cm^2 /hr and 24.67 ng/cm^2 /hr and 18.82 ng/cm^2 /hr
same,"Rate of absorption, R3","butter, R3, mid-t 10 h, average per skin donor (n=4), listed as Retinoic Acid",18.82 ng/cm^2 /hr and 24.67 ng/cm^2 /hr and 26.40 ng/cm^2 /hr
same,"Rate of absorption, R4","butter, R4, mid-t 18 h, average of three donors",19.52 ng/cm^2 /hr
same,"Rate of absorption, R4","butter, R4, mid-t 18 h, average per skin donor (n=4), listed as RETINOIC ACID",17.81 ng/cm^2 /hr and 23.16 ng/cm^2 /hr and 17.59 ng/cm^2 /hr
same,"Rate of absorption, R4","butter, R4, mid-t 18 h, average per skin donor (n=4), listed as Retinoic Acid",17.59 ng/cm^2 /hr and 23.16 ng/cm^2 /hr and 17.81 ng/cm^2 /hr
same,"Rate of absorption, R5","butter, R5, mid-t 30 h, average of three donors",14.78 ng/cm^2 /hr
same,"Rate of absorption, R5","butter, R5, mid-t 30 h, average per skin donor (n=4), listed as RETINOIC ACID",17.40 ng/cm^2 /hr and 15.66 ng/cm^2 /hr and 11.28 ng/cm^2 /hr
same,"Rate of absorption, R5","butter, R5, mid-t 30 h, average per skin donor (n=4), listed as Retinoic Acid",11.28 ng/cm^2 /hr and 15.66 ng/cm^2 /hr and 17.40 ng/cm^2 /hr
same,"Rate of absorption, R6","butter, R6, mid-t 42 h, average of three donors",15.09 ng/cm^2 /hr
same,"Rate of absorption, R6","butter, R6, mid-t 42 h, average per skin donor (n=4), listed as RETINOIC ACID",18.31 ng/cm^2 /hr and 16.48 ng/cm^2 /hr and 10.48 ng/cm^2 /hr
same,"Rate of absorption, R6","butter, R6, mid-t 42 h, average per skin donor (n=4), listed as Retinoic Acid",10.48 ng/cm^2 /hr and 16.48 ng/cm^2 /hr and 18.31 ng/cm^2 /hr
same,% Absorbed / total absorption,[2],16.2%
same,% Absorbed / total absorption,"butter, 48 h, average of three donors, listed as Retinoic Acid",16.22%
same,% Abs (% Absorbed),[3],16.97% and 18.02% and 13.67%
same,% Abs (% Absorbed),[4],13.67% and 18.02% and 16.97%
